Source: the C3SDB collision cross section collection

Conditions: [M+H]+; instrument: TW

Row | SMILES | collision cross section (N2) [Å²]
1 | O=C(Nc1ccccc1)N(Cc1ccc(Cl)cc1)C1CCCC1 [Pencycuron] | 179.71
2 | O=[N+]([O-])/N=C1\NCCN1Cc1ccc(Cl)nc1 [Imidacloprid] | 149.62
3 | N#CC(CCc1ccc(Cl)cc1)(Cn1cncn1)c1ccccc1 (stereo not drawn) [Fenbuconazole] | 182.44
4 | Cc1ncc([N+](=O)[O-])n1CCO [Metronidazole] | 124.2
5 | CN(C)[C@@H]1C(O)=C(C(=N)O)C(=O)[C@@]2(O)C(O)=C3C(=O)c4c(O)ccc(Cl)c4[C@@](C)(O)[C@H]3C[C@@H]12 [Chlortetracycline] | 203.9
6 | O=C(NC(=O)c1c(F)cccc1F)Nc1cc(Cl)c(F)c(Cl)c1F [Teflubenzuron] | 171.81
7 | N#Cc1nn(-c2c(Cl)cc(C(F)(F)F)cc2Cl)c(N)c1S(=O)C(F)(F)F (stereo not drawn) [Fipronil] | 180.77
8 | CCCSP(=O)(OCC)SCCC [Ethoprophos] | 149.27
9 | Cc1cc(NS(=O)(=O)c2ccc(N)cc2)no1 [Sulfamethoxazole] | 146.3
10 | CC1(C)OC(=O)C(OCC2CC2)=C1c1ccc(S(C)(=O)=O)cc1 [Firocoxib] | 182.1
11 | C[C@]12Cc3cn[nH]c3C[C@@H]1CC[C@@H]1[C@@H]2CC[C@@]2(C)[C@H]1C[C@H](O)[C@]2(C)O [16B-hydroxystanozolol] | 192.1
12 | C[C@]12Cc3cn[nH]c3C[C@@H]1CC[C@@H]1[C@@H]2CC[C@@]2(C)[C@H]1CC[C@]2(C)O [Stanozolol] | 185.2
13 | CN(C)CCCN1c2ccccc2Sc2ccc(Cl)cc21 [Chlorpromazine] | 169.1
14 | O=[N+]([O-])c1cnc(CO)n1CCO [Hydroxymetronidazole] | 128.2
15 | C[C@H]1C[C@H]2[C@@H]3CCC4=CC(=O)C=C[C@]4(C)[C@@]3(Cl)[C@@H](O)C[C@]2(C)[C@@]1(O)C(=O)CO [Beclomethasone] | 189.2
16 | CON(C)C(=O)Nc1ccc(Br)cc1 [Metobromuron] | 145.41
17 | C[C@]12CCC(=O)C=C1CC[C@@H]1[C@@H]2CC[C@@]2(C)[C@H]1CC[C@]2(C)O [17a-Methyltestosterone] | 173.7
18 | Nc1ccc(S(=O)(=O)Nc2ccccn2)cc1 [Sulfapyridine] | 142.3
19 | CCCCOC(=O)N(C)SN(C)C(=O)Oc1cccc2c1OC(C)(C)C2 [Furathiocarb] | 190.73
20 | CNC(=O)N(C)c1nc2ccccc2s1 [Methabenzthiazuron] | 142.47
21 | Nc1c(Cl)c(F)nc(OCC(=O)O)c1Cl [Fluroxypyr] | 140.69
22 | CN1C(/C(O)=N/c2ccccn2)=C(O)c2ccccc2S1(=O)=O [Piroxicam] | 170.9
23 | Cc1nnc(-c2ccccc2)c(=O)n1N [Metamitron] | 140.93
24 | O=C2\C(=C(/N(N2c1ccccc1)C)C)C(C)C [Propyphenazone] | 150
25 | C=C[C@]1(C)C[C@@H](OC(=O)CSCCN(CC)CC)C2(C)C(C)CC[C@]3(CCC(=O)[C@@H]23)[C@@H](C)[C@@H]1O (stereo partly drawn) [Tiamulin] | 218.9
26 | CC(C)(C)[C@H](O)[C@H](Cc1ccc(Cl)cc1)n1cncn1 (racemic) [Paclobutrazol] | 168.73

Row | SMILES | collision cross section (N2) [Å²]
27 | CC1C(c2ccc(Cl)cc2)SC(=O)N1C(=O)NC1CCCCC1 (stereo not drawn) [Hexythiazox] | 183.83
28 | C/C(=N\C#N)N(C)Cc1ccc(Cl)nc1 [Acetamiprid] | 150.24
29 | C=C[C@]1(C)C[C@@H](OC(=O)CSC(C)(C)CNC(=O)[C@H](N)C(C)C)[C@]2(C)[C@H](C)CC[C@]3(CCC(=O)[C@H]32)[C@@H](C)[C@@H]1O [Valnemulin] | 233.3
30 | CC(=O)c1ccc2c(c1)N(CCCN(C)C)c1ccccc1S2 [Acetopromazine] | 160.5
31 | CC(C)(C)NCC(O)c1cc(Cl)c(N)c(Cl)c1 (stereo not drawn) [Clenbuterol] | 159.2
32 | O=C\1\C=C/[C@]3(/C(=C/1)CC[C@H]4[C@@H]2CCC(=O)[C@]2(CC[C@H]34)C)C [1,4-androstadiene-3,17-dione] | 166.5
33 | CC1=C(C(=O)Nc2ccccc2)SCCO1 [Carboxin] | 149.35
34 | Cc1ccc(-c2c(Cl)nc(C#N)n2S(=O)(=O)N(C)C)cc1 [Cyazofamid] | 166.69
35 | CCNc1nc(Cl)nc(NCC)n1 [Simazine] | 142.09
36 | FC(F)C(F)(F)OCC(Cn1cncn1)c1ccc(Cl)cc1Cl (stereo not drawn) [Tetraconazole] | 174.34
37 | C=C1C[C@@]23CC[C@H]4[C@@](C)(CCC[C@@]4(C)C(=O)O)[C@@H]2CC[C@]1(O[C@@H]1O[C@H](CO)[C@@H](O)[C@H](O)[C@H]1O[C@@H]1O[C@H](CO)[C@@H](O)[C@H](O)[C@H]1O)C3 [Steviolbioside] | 235.78
38 | Cc1ccc(/N=C(/O)N(C)C)cc1Cl [Chlortoluron] | 145.96
39 | COc1nc(C)nc(NC(=O)NS(=O)(=O)c2ccccc2CCC(F)(F)F)n1 [Prosulfuron] | 187.01
40 | CCOP(=O)(OCC)Oc1ccc([N+](=O)[O-])cc1 [Paraoxon-ethyl] | 156.76
41 | Fc1ccc(cc1)N\3c2cc(c(F)cc2C(=O)C(/C(=O)O)=C/3)N4CCNCC4 [Sarafloxacine] | 202
42 | Cc1cccc(Nc2ccccc2C(=O)O)c1C [Mefenamic acid] | 150.5
43 | CCCN(CCC)C(=O)SCc1ccccc1 [Prosulfocarb] | 156.95
44 | Cc1ccnc(NS(=O)(=O)c2ccc(N)cc2)n1 [Sulfamerazine] | 154.8
45 | CCOC(=O)C1CC(=O)C(=C(O)C2CC2)C(=O)C1 (stereo not drawn) [Trinexapac-ethyl] | 152.92
46 | C/N=C(/O)CSP(=O)(OC)OC [Omethoate] | 134.62
47 | CCN(CC)C(=O)c1cccc(C)c1 [DEET] | 142.48
48 | CC(C)N1C(=O)N(c2ccccc2)CS/C1=N\C(C)(C)C [Buprofezin] | 173.58
49 | Nc1ccc(S(=O)(=O)Nc2cnc3ccccc3n2)cc1 [Sulfaquinoxaline] | 164.8
50 | CN1CCN(c2c(F)cc3c(=O)c(C(=O)O)cn4c3c2OCN4C)CC1 [Marbofloxacin] | 179.6
51 | CC(C(=O)O)c1ccc2c(c1)[nH]c1ccc(Cl)cc12 (stereo not drawn) [Carprofen] | 156.1

Conditions: [M+H]+; instrument: DT; stepped-field

Row | collision cross section (N2) [Å²] | SMILES
52 | 285.2 | OC[C@H]1O[C@@H]2O[C@H]3[C@H](O)[C@@H](O)[C@@H](O[C@H]4[C@H](O)[C@@H](O)[C@@H](O[C@H]5[C@H](O)[C@@H](O)[C@@H](O[C@H]6[C@H](O)[C@@H](O)[C@@H](O[C@H]7[C@H](O)[C@@H](O)[C@@H](O[C@H]1[C@H](O)[C@H]2O)O[C@@H]7CO)O[C@@H]6CO)O[C@@H]5CO)O[C@@H]4CO)O[C@@H]3CO [Alpha-Cyclodextrin]
53 | 225 | N=C(N)NCCC[C@H](NC(=O)[C@H](CC(N)=O)NC(=O)[C@H](Cc1ccccc1)NC(=O)[C@@H](N)CC(N)=O)C(=O)O [NFNR]

Same assay, conditions: [M+K]+; instrument: DT; stepped-field

Row | collision cross section (N2) [Å²] | SMILES
54 | 283.6 | CCCCCCCCCC/C=C\CCCCCCCCCC(=O)O[C@H](COC(=O)CCCCCCCCCCCC)COP(=O)(O)OCCN [PE(35:1)]
55 | 296.1 | CCCC/C=C\C/C=C\CCCCCCCC(=O)O[C@H](COC(=O)CCCCCCC/C=C\CCCCCCCC)COP(=O)([O-])OCC[N+](C)(C)C [PC(35:3)]
56 | 306.3 | CCCCCCCC=CCC=CCC=CCC=CCC=CCC(=O)OC[C@H](COP(=O)(O)OC[C@H](N)C(=O)O)OC(=O)CC=CCC=CCC=CCC=CCC=CCCCCCCC [PS(46:10)]

Further lines, the compound ahead of its results:

Row | SMILES | collision cross section (N2) [Å²]
57 | CC/C=C\C/C=C\C/C=C\C/C=C\C/C=C\C/C=C\CCC(=O)OC[C@H](COP(=O)([O-])OCC[N+](C)(C)C)OC(=O)CCCCCCC/C=C\CCCCCCC [PC(39:7)] | 303.8
58 | OC[C@H]1O[C@@H]2O[C@H]3[C@H](O)[C@@H](O)[C@@H](O[C@H]4[C@H](O)[C@@H](O)[C@@H](O[C@H]5[C@H](O)[C@@H](O)[C@@H](O[C@H]6[C@H](O)[C@@H](O)[C@@H](O[C@H]7[C@H](O)[C@@H](O)[C@@H](O[C@H]1[C@H](O)[C@H]2O)O[C@@H]7CO)O[C@@H]6CO)O[C@@H]5CO)O[C@@H]4CO)O[C@@H]3CO [Alpha-Cyclodextrin] | 287.7

Same assay, conditions: [M+Na]+; instrument: DT; stepped-field

Row | collision cross section (N2) [Å²] | SMILES
59 | 308.2 | CCCCCCCCCCCCCCCCCCCCCCCC(=O)N[C@@H](CO[C@@H]1O[C@H](CO)[C@@H](O)C(O)C1O)[C@H](O)CCCCCCCCCCCCCCC (stereo partly drawn) [GlcCer(42:0)]
60 | 282.9 | CCCCCCCCCC/C=C\CCCCCCCCCC(=O)O[C@H](COC(=O)CCCCCCCCCCCC)COP(=O)(O)OCCN [PE(35:1)]
61 | 305.2 | CCCCCCCCCCCCC=CC[C@@H](O)[C@H](CO[C@@H]1O[C@H](CO)[C@@H](O)C(O)C1O)NC(=O)CC=CCCCCCCCCCCCCCCCCCCCC (stereo partly drawn) [GlcCer(42:2)]
62 | 295.8 | CCCCCCCCCCCCC=CC[C@@H](O)[C@H](CO[C@@H]1O[C@H](CO)[C@@H](O)C(O)C1O)NC(=O)CC=CCC=CCCCCCCCCCCCCCCC (stereo partly drawn) [GlcCer(40:3)]
63 | 309.2 | CCCCCCCC=CCC=CCC=CCC=CCC=CCC(=O)OC[C@H](COP(=O)(O)OC[C@H](N)C(=O)O)OC(=O)CC=CCC=CCC=CCC=CCC=CCCCCCCC [PS(46:10)]

Continued, compound first:

Row | SMILES | collision cross section (N2) [Å²]
64 | CCCCCCCCCCCCC=CC[C@@H](O)[C@H](CO[C@@H]1O[C@H](CO)[C@@H](O)C(O)C1O)NC(=O)CC=CCCCCCCCCCCCCCC (stereo partly drawn) [GlcCer(36:2)] | 282.6
65 | OC[C@H]1O[C@@H]2O[C@H]3[C@H](O)[C@@H](O)[C@@H](O[C@H]4[C@H](O)[C@@H](O)[C@@H](O[C@H]5[C@H](O)[C@@H](O)[C@@H](O[C@H]6[C@H](O)[C@@H](O)[C@@H](O[C@H]7[C@H](O)[C@@H](O)[C@@H](O[C@H]1[C@H](O)[C@H]2O)O[C@@H]7CO)O[C@@H]6CO)O[C@@H]5CO)O[C@@H]4CO)O[C@@H]3CO [Alpha-Cyclodextrin] | 285.5

Same assay, conditions: [M]+; instrument: DT; stepped-field

Row | collision cross section (N2) [Å²] | SMILES
66 | 236.4 | CCCCCCC[N+](CCCCCCC)(CCCCCCC)CCCCCCC [TAA7]

Conditions: [M+HCOO]-; instrument: DT; single field, calibrated with Agilent tune mix (Agilent)

Row | collision cross section (N2) [Å²] | SMILES
67 | 300.8 | CCCCCCCCCCCCCCCCCCCCCCCC(=O)N[C@@H](CO[C@@H]1O[C@H](CO)[C@@H](O)C(O)C1O)[C@H](O)CCCCCCCCCCCCCCC (stereo partly drawn) [GlcCer(42:0)]
68 | 298.5 | CCCCCCCCCCCCC=CC[C@@H](O)[C@H](CO[C@@H]1O[C@H](CO)[C@@H](O)C(O)C1O)NC(=O)CC=CCCCCCCCCCCCCCCCCCCCC (stereo partly drawn) [GlcCer(42:2)]

Same assay, conditions: [M+H]+; instrument: DT; single field, calibrated with Agilent tune mix (Agilent)

Row | collision cross section (N2) [Å²] | SMILES
69 | 283.4 | CCCCCCCCCCCCC=CC[C@@H](O)[C@H](CO[C@@H]1O[C@H](CO)[C@@H](O)C(O)C1O)NC(=O)CC=CCCCCCCCCCCCCCC (stereo partly drawn) [GlcCer(36:2)]
70 | 276.6 | CCCCCCCCCC/C=C\CCCCCCCCCC(=O)O[C@H](COC(=O)CCCCCCCCCCCC)COP(=O)(O)OCCN [PE(35:1)]
71 | 284.2 | CCCC/C=C\C/C=C\CCCCCCCC(=O)O[C@H](COC(=O)CCCCCCC/C=C\CCCCCCCC)COP(=O)([O-])OCC[N+](C)(C)C [PC(35:3)]
72 | 300.9 | CCCCCCCCCCCCC=CC[C@@H](O)[C@H](CO[C@@H]1O[C@H](CO)[C@@H](O)C(O)C1O)NC(=O)CC=CCCCCCCCCCCCCCCCCCCCC (stereo partly drawn) [GlcCer(42:2)]

Same assay, conditions: [M+Na]+; instrument: DT; single field, calibrated with Agilent tune mix (Agilent)

Row | collision cross section (N2) [Å²] | SMILES
73 | 300.4 | CCCCCCCCCCCCC=CC[C@@H](O)[C@H](CO[C@@H]1O[C@H](CO)[C@@H](O)C(O)C1O)NC(=O)CC=CCCCCCCCCCCCCCCCCCCCC (stereo partly drawn) [GlcCer(42:2)]
